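All cell lines were grown in 96-well plates and treated with compound for 48 hours. GI50 = concentration required for 50% inhibition of growth. Definition used: TGI = concentration required for complete inhibition of growth.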
Columns and labels:
Test in all cases: NCI-60 cell line screen, 48 h; in the data active = GI50 below about 0.43 µM; inactive = the rest
ACHN renal = system: ACHN renal
SK-OV-3 ovarian = system: SK-OV-3 ovarian
T-47D breast = system: T-47D breast
OVCAR-5 ovarian = system: OVCAR-5 ovarian
K-562 leukemia = system: K-562 leukemia
HOP-62 NSCLC = system: HOP-62 NSCLC
NCI-H226 lung = system: NCI-H226 lung
HOP-92 NSCLC = system: HOP-92 NSCLC
HT29 colon = system: HT29 colon
DU-145 prostate = system: DU-145 prostate

COc1ccc(NC(=O)/C=C(C)/C=C/C=C(C)\C=C\C2=C(C)CCCC2(C)C)cc1
inactive: GI50 (ACHN renal) > 100 µM | GI50 (SK-OV-3 ovarian) > 100 µM | GI50 (T-47D breast) 3.79 µM | GI50 (OVCAR-5 ovarian) > 100 µM | GI50 (K-562 leukemia) 30.3 µM | GI50 (HOP-62 NSCLC) > 100 µM | GI50 (NCI-H226 lung) > 100 µM | GI50 (HT29 colon) 41.2 µM | GI50 (DU-145 prostate) > 100 µM
43.1 µM: TGI (T-47D breast)
30.4 µM: TGI (HOP-92 NSCLC)
> 100 µM: TGI (ACHN renal) | TGI (SK-OV-3 ovarian) | TGI (OVCAR-5 ovarian) | TGI (K-562 leukemia) | TGI (HOP-62 NSCLC) | TGI (NCI-H226 lung) | TGI (HT29 colon) | TGI (DU-145 prostate)

NS(=O)(=O)c1ccc(NC(=O)Nc2ccccc2F)cc1
> 100 µM: TGI (ACHN renal) | TGI (SK-OV-3 ovarian) | TGI (T-47D breast) | TGI (OVCAR-5 ovarian) | TGI (K-562 leukemia) | TGI (HOP-62 NSCLC) | TGI (NCI-H226 lung) | TGI (HOP-92 NSCLC) | TGI (HT29 colon) | TGI (DU-145 prostate)

C1CC[N-]CC1.CC(=N\O)/C(C)=N/O.CC(=N\O)/C(C)=N/O.[CH2-]CCN1CCOCC1.[Co+2]
inactive: GI50 (ACHN renal) > 100 µM | GI50 (SK-OV-3 ovarian) > 100 µM | GI50 (T-47D breast) > 100 µM | GI50 (OVCAR-5 ovarian) > 100 µM | GI50 (K-562 leukemia) > 100 µM | GI50 (HOP-62 NSCLC) > 100 µM | GI50 (NCI-H226 lung) > 100 µM | GI50 (HOP-92 NSCLC) > 100 µM | GI50 (HT29 colon) > 100 µM | GI50 (DU-145 prostate) > 100 µM
> 100 µM: TGI (ACHN renal) | TGI (SK-OV-3 ovarian) | TGI (T-47D breast) | TGI (OVCAR-5 ovarian) | TGI (K-562 leukemia) | TGI (HOP-62 NSCLC) | TGI (NCI-H226 lung) | TGI (HOP-92 NSCLC) | TGI (HT29 colon) | TGI (DU-145 prostate)

COc1cc([C@@H]2c3cc4c(cc3C(OC3O[C@@H]5COC(C)O[C@H]5[C@H](O)[C@H]3O)C3COC(=O)[C@@H]32)OCO4)cc(OC)c1O (some centres undefined)
> 50 µM: TGI (OVCAR-5 ovarian)
5.78 µM: TGI (DU-145 prostate)
7.25 µM: TGI (NCI-H226 lung)
20.3 µM: TGI (HT29 colon)
14.2 µM: TGI (SK-OV-3 ovarian)
inactive: GI50 (ACHN renal) 1.27 µM | GI50 (SK-OV-3 ovarian) 1.58 µM | GI50 (OVCAR-5 ovarian) 11 µM | GI50 (K-562 leukemia) 1.53 µM | GI50 (HOP-62 NSCLC) 0.619 µM | GI50 (NCI-H226 lung) 0.792 µM | GI50 (HT29 colon) 5.42 µM | GI50 (DU-145 prostate) 1.2 µM
2.97 µM: TGI (HOP-62 NSCLC)
> 30.3 µM: TGI (K-562 leukemia)
active: GI50 (T-47D breast) 0.331 µM | GI50 (HOP-92 NSCLC) 0.397 µM
9.97 µM: TGI (HOP-92 NSCLC)
> 33.1 µM: TGI (T-47D breast)
> 25 µM: TGI (ACHN renal)
